Test results from publication PMC4525288, “Structures of FolT in substrate-bound and substrate-released conformations reveal a gating mechanism for ECF transporters” (Nature Communications, 2015).

Tests used:
[1] = target: T1, EfFolT (Enterococcus faecalis, UniProt Q837A3); experiment: isothermal titration calorimetry; crystal structure […] A; assay type: binding; conditions: read-out: Dissociation constant/KD
T1 construct: gene EF_0940; full-length S component without ECF module; N-terminal His6 tag (pET28a, NdeI/XhoI), E. coli BL21(DE3), detergent-purified
T1 sequence (Q837A3 1-179): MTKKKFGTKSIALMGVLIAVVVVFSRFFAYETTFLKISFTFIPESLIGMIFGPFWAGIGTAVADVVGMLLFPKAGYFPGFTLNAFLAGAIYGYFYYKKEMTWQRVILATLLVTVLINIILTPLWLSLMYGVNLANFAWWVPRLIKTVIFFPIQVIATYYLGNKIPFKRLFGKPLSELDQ

[2] = target: T2, EfFolT (Enterococcus faecalis, UniProt Q837A3, Y129A); experiment: biochemical
T2 construct: gene EF_0940

[3] = target: T3, EfFolT (Enterococcus faecalis, UniProt Q837A3, K145A); experiment: biochemical
T3 construct: gene EF_0940

[4] = target: T4, EfFolT (Enterococcus faecalis, UniProt Q837A3, N117A); experiment: biochemical
T4 construct: gene EF_0940

[5] = target: T5, EfFolT (Enterococcus faecalis, UniProt Q837A3, F80W); experiment: biochemical
T5 construct: gene EF_0940

[6] = target: T6, EfFolT (Enterococcus faecalis, UniProt Q837A3, K36R); experiment: biochemical
T6 construct: gene EF_0940

[7] = target: T7, EfFolT (Enterococcus faecalis, UniProt Q837A3, T81A); experiment: biochemical
T7 construct: gene EF_0940

[8] = target: T8, EfFolT (Enterococcus faecalis, UniProt Q837A3, K145T); experiment: biochemical
T8 construct: gene EF_0940

[9] = target: T9, EfFolT (Enterococcus faecalis, UniProt Q837A3, K36A); experiment: biochemical
T9 construct: gene EF_0940

[10] = target: T10, EfFolT (Enterococcus faecalis, UniProt Q837A3, T121A); experiment: biochemical
T10 construct: gene EF_0940

[11] = target: T11, EfFolT (Enterococcus faecalis, UniProt Q837A3, R26A); experiment: biochemical
T11 construct: gene EF_0940

Nc1nc2ncc(CNc3ccc(C(=O)N[C@@H](CCC(=O)O)C(=O)O)cc3)nc2c(=O)[nH]1 [folate]
Kd [1]: 29.8 ± 4.7 nM
Kd [2]: 635 ± 33.6 nM
Kd [3]: 3300 ± 198 nM
Kd [4]: 68.6 ± 6.4 nM
Kd [5]: 499 ± 25.8 nM
Kd [6]: 91.5 ± 7.5 nM
Kd [7]: 813 ± 162 nM
Kd [8]: 3690 nM
Kd [9]: 5400 nM
Kd [10]: 288 ± 21.1 nM
Kd [11]: 252 ± 22 nM
